The test system of assay [1] is A431 (human epithelial carcinoma cell lines). The assay can be described thus: Growth inhibition test in tumor cells (CCK8), A431. The assay is classed as cell-based. The note with it: A-431, 72 h.
Description: (§1) i) Logarithmic growth phase cells were collected and counted, the cells were suspended again with complete medium, the cell concentration was adjusted to an appropriate concentration (determined according to the results of cell density optimization test), inoculated to 96 plates, each of which with 100 mL cells suspension.
The test system of assay [2] is NCI H1975 (human non-small cell lung cancer cell lines). As to the kind of experiment: Growth inhibition test in tumor cells (CCK8), NCI-H1975. The note with it: 72 h. In kind it is cell-based.
Description: as §1
In assay [3] the test system is HCC 827 (human non-small cell lung cancer cell line). As to the kind of experiment: Growth inhibition test in tumor cells (CCK8), HCC827. The assay is classed as cell-based. The conditions noted are these: HCC 827 cells, 72 h.
Description: as §1
The test system of assay [4] is MDA-MB-453 (human breast cancer cell lines). As to the kind of experiment: Growth inhibition test in tumor cells (CCK8), MDA-MB-453. The note with it: MDA-MB-453 cells, 72 h. The assay is classed as cell-based. As for the experimental part: Growth Inhibition Tests of a Series of Compounds in Different Tumor Cells
i. Cell lines: A431 (human epithelial carcinoma cell lines), A549 (human lung cancer cell lines), NCI H1975 (human non-small cell lung cancer cell lines (HCC), HCC 827 (human non-small cell lung cancer cell line), MDA-MB-453 (human breast cancer cell lines)
MDA-MB-453 cell line: 90% L15+10% FBS; trypsin (a 0.25% (W/V) solution was prepared with […], 0.53 mM EDTA was added);
i) Logarithmic growth phase cells were collected and counted, the cells were suspended again with complete medium,
ii) The cell concentration was adjusted to an appropriate concentration, inoculated to 96 holes, each of which with 100 μL cells suspension.
iii) The cells were incubated in a 37° C., 100% relative humidity and 5% CO2 incubator, for 24 h.
i) Logarithmic growth phase cells were collected and counted, the cells were suspended again with complete medium, the cell concentration was adjusted to an appropriate concentration (determined according to the results of cell density optimization test), inoculated to 96 plates, each of which with […] cells suspension. The cells were incubated in a 37° C., 100% relative humidity and 5% CO2 incubator for 24 h.
ii) The test compounds were diluted to the corresponding concentration stated by culture medium, and the cells were inoculated as 25 μL/hole. The final concentration of the compound was from 10 μM to 0 μM, with a gradient of 4 times, and 10 concentration points totally.
iii) The cells were incubated in a 37° C., 100% relative humidity, 5% CO2 incubator for 72 h.
iv) Absorbing the culture medium, the complete medium containing 10% CCK-8 was added and incubated in the incubator of 37° C. for 2-4 h.
v) After a slight shake, the absorbance at 450 nm was measured by SpectraMax M5 Microplate Reader, taking the absorbance at 650 nm as a reference, the inhibition rate was calculated.
The IC50 curve fitting was performed by using the software Graphpad Prism 5 and the calculation formula log (inhibitor) vs. response to calculate the IC50 value.

The test system of assay [5] is A549 (human lung cancer cell lines). The assay can be described thus: Growth inhibition test in tumor cells (CCK8), A549. The assay is classed as cell-based. The conditions noted are these: 72 h.
Description: as §1
Assay [6] relates to NCI-H1975 nude mice transplanted tumor. The assay can be described thus: In vivo pharmacodynamics evaluation, NCI-H1975 nude mice transplanted tumor. The conditions noted are these: 20 mg/kg, qd, gavage, 14 days. Also noted: species or system BALB/c nude mice. The protocol: BALB/c nude mice, female, 6 to 7 weeks of age, weight 20 g±2 g, purchased from Shanghai silaike experimental animal Co. Ltd., SPF environment.
The logarithmic growth phase NCI-H1975 cells cultured in vitro were digested with trypsin, washed with PBS for three times, the cell survival rate was detected by trypan blue exclusion to be >90%, the cell concentration was adjusted to 1×10^7/mL with PBS, which was implanted subcutaneously in back forelimb of the nude mice with 0.2 mL/pcs under aseptic condition. After tumor formation, the tumor were cultured for two passages in vivo, the tumor were stripped out to sterile culture plate when growing to the volume of 300 to 500 mm^3, a small amount of PBS was added, the tumor tissue with vigorous growth were cut into about 1.5 mm^3 tumor blocks, inoculated in right armpit of the nude mice. The diameter of tumor was measured with vernier caliper, when the tumor grew to 100 to 200 mm^3, then the animal were randomly grouping, […], gavage administration, once a day or every other day, continuously administrated for 14 days (d14) and observed for 7 days (d22), the negative control group was administrated with the same amount of solvent (saline solution of 1% DMSO), during the period of administration and recovery, the body weight and tumor size of the nude mice were measured weekly 2 to 3 times. The tumor volume and relative tumor volume were calculated according to the measured data, and the calculation formula of the tumor volume (TV) was TV=1/2×a×b^2, of which a and b represent the tumor length and diameter respectively. The relative tumor volume (RTV) was calculated according to the measured results, and the calculation formula was: RTV=Vt/V0, wherein V0 represents the tumor volume at the beginning of the experiment, Vt represents the volume of the tumor each measured.

A further assay deals with Her-2 enzyme (Homo sapiens (Human), UniProt P04626). As to the kind of experiment: HTRF kinEASE TK in vitro kinase assay, Her-2. In kind it is biochemical. The conditions noted are these: 30 min enzyme reaction, read-out: IC50 against Her-2. (Time-resolved FRET reads energy transfer from a long-lived donor to a nearby acceptor.)
Her-2 enzyme, sequence (P04626 23-1255): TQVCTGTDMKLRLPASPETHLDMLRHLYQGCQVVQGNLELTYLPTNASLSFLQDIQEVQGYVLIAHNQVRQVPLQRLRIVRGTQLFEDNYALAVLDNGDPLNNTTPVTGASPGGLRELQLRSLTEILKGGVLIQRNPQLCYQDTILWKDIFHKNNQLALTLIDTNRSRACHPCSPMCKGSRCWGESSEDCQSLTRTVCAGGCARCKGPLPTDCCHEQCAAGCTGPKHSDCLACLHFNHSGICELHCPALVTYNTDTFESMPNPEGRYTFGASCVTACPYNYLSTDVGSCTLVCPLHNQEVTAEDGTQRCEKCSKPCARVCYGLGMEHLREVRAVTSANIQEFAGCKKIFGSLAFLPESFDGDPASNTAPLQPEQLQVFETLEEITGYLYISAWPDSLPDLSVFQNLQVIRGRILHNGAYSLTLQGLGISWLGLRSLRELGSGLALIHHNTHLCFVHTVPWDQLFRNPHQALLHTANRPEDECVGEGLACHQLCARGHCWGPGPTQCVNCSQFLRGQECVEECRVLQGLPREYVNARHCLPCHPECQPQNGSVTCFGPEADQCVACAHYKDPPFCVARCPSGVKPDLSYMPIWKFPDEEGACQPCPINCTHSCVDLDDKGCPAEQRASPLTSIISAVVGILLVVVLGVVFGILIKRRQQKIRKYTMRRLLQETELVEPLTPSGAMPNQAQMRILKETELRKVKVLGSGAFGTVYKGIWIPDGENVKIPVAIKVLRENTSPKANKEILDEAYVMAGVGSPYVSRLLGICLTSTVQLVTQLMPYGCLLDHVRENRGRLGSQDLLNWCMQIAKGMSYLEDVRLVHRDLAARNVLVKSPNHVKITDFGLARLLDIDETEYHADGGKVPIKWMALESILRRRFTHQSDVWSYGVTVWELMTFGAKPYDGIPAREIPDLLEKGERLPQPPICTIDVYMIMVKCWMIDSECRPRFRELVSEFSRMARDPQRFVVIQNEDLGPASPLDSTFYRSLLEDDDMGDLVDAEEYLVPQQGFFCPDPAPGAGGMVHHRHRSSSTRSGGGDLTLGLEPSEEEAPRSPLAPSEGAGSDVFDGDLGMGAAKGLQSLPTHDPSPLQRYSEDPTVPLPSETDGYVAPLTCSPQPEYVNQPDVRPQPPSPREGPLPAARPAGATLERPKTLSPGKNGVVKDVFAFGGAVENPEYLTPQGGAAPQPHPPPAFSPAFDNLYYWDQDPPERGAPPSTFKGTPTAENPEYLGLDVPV

SMILES strings stand for the structures. Marks after values point to notes of the source that are not given here.

Description for Her-2 enzyme: The kinase analysis in vitro was performed using the HTRF kinEASE TK kit of Invitrogen Co., the procedure steps were carried out according to instructions of kit, the method then was used to detect the inhibitory effects of test compounds on substrate peptide phosphorylation of the EGFR receptor tyrosine kinase and Her-2 activity enzyme in vitro. Specific steps are as follows:
b) 2 microliters of the previously prepared TK-biotin substrate solution of EGFR and Her-2 enzyme corresponding to the substrate concentration were added to all the reaction holes.
The holes were sealed with sealing film for microplate, mixed and incubated at room temperature for 10 min to allow the compounds and enzymes fully combine.
d) 2 microliters of ATP solutions with concentration corresponding to EGFR and Her-2 enzyme were added to all the reaction holes to start the kinase reaction, the enzyme reaction time of EGFR and HER2 are 30 min.
e) The EGFR and Her-25 detection solution were prepared 5 min before the end of the kinase reaction. Streptavidin-XL665 and TK europium cryptate (1:100) detection solution corresponding to the two enzymes were prepared respectively by using detection buffer in the kit.
f) 5 microliters of diluted Streptavidin-XL665 were added to all the reaction holes after the kinase reaction was over, diluted TK antibody europium cryptate detection solutions were then added immediately after fully mixed.

In the case of `CCOCCOc1cc2ncnc(Nc3ccc(F)c(Cl)c3)c2cc1NC(=O)/C=C/Br` [Embodiment 30, (E)-N-(4-(3-chloro-4-fluorophenylamino)-7-(2-ethoxyethoxy)quinazolin-6-yl)-3-bromoacrylamide], the IC50 was 297 nM in assay [1], 8.22 nM in assay [2], 4.87 nM in assay [3] and 4 nM in assay [4].
In the case of `CCOCCOc1cc2ncnc(Nc3ccc(F)c(Cl)c3)c2cc1NC(=O)/C=C\C#N` [Embodiment 38, (Z)—N-(4-(3-chloro-4-fluorophenylamino)-7-(2-ethoxyethoxy)quinazolin-6-yl)-3-cyanoacrylamide], the IC50 was 94.8 nM in assay [1], 18.4 nM in assay [2], 5.56 nM in assay [3] and 0.68 nM in assay [4].
For `C=C(Br)C(=O)Nc1cc2c(Nc3ccc(F)c(Cl)c3)ncnc2cc1OCCOCC` [Embodiment 28, N-(4-(3-chloro-4-fluorophenylamino)-7-(2-ethoxyethoxy)quinazolin-6-yl)2-bromoacrylamide] the same measures were 572 nM, 39.4 nM, 6.4 nM and 15.1 nM.
For the compound `CCOCCOc1cc2ncnc(Nc3ccc(OCCOC)c(Cl)c3)c2cc1NC(=O)/C=C/CN(C)C` [Embodiment 15, (E)-N-(4-(3-chloro-4-(2-methoxyethoxy)phenylamino)-7-(2-ethoxyethoxy)quinazolin-6-yl)-4-(dimethylamino)but-2-enamide], the IC50 in assay [1] was found to be 20.1 nM; in assay [2], 7.3 nM; in assay [3], 3.43 nM; in assay [4], 1.66 nM.
For the compound `CCOCCOc1cc2ncnc(Nc3ccc(F)c(Cl)c3)c2cc1NC(=O)/C=C/C(=O)OC` [Embodiment 37, methyl (E)-4-(4-((3-chloro-4-fluorophenylamino)-7-(2-ethoxyethoxy)quinazolin-6-yl)amino)-4-oxobut-2-enoate], the IC50 in assay [1] was 207 nM; in assay [2] it was 35.2 nM; in assay [3], 0.987 nM; in assay [4] it was 21.6 nM.
The matching figures for `C#CC(=O)Nc1cc2c(Nc3ccc(F)c(Cl)c3)ncnc2cc1OCCOCC` [Embodiment 25, N-(4-(3-chloro-4-fluorophenylamino)-7-(2-ethoxyethoxy)quinazolin-6-yl)propiolamide]: 11.4 nM, 49.3 nM, 1.47 nM and 3.43 nM.
As for `CCOCCOc1cc2ncnc(Nc3ccc(OCC(F)(F)F)c(Cl)c3)c2cc1NC(=O)/C=C/CN(C)C` [Embodiment 13, (E)-N-(4-(3-chloro-4-(2,2,2-trifluoroethoxy)phenylamino)-7-(2-ethoxyethoxy)quinazolin-6-yl)-4-(dimethylamino)but-2-enamide], the IC50 was determined as 64.1 nM in assay [1], 107 nM in assay [2], 2.9 nM in assay [3] and 2.56 nM in assay [4].
Consider `C=C(Cl)C(=O)Nc1cc2c(Nc3ccc(F)c(Cl)c3)ncnc2cc1OCCOCC` [Embodiment 27, N-(4-(3-chloro-4-fluorophenylamino)-7-(2-ethoxyethoxy)quinazolin-6-yl)2-chloroacrylamide], for which the IC50 in assay [1] stood at 369 nM; in assay [2], 37.1 nM; in assay [3], 33.2 nM; in assay [4], 3.72 nM.
`CCOCCOc1cc2ncnc(Nc3ccc(NCCS(C)(=O)=O)c(Cl)c3)c2cc1NC(=O)/C=C/CN(C)C` [Embodiment 20, (E)-N-(4-(3-chloro-4-((2-(methylsulfonyl)ethyl)amino)phenylamino)-7-(2-ethoxyethoxy)quinazolin-6-yl)-4-(dimethylamino)but-2-enamide]: the IC50 was 6.49 nM in assay [1], 65.6 nM in assay [2], 0.538 nM in assay [3] and 12.7 nM in assay [4].
The compound `CN(C)CC=CC(=O)Nc1cc2c(Nc3ccc(F)c(Cl)c3)ncnc2cc1O[C@H]1CCOC1` [Afatinib, N-[4-[(3-chloro-4-fluorophenyl)amino]-7-[[(3S)-tetrahydro-3-furyl]oxy]-6-quinazolinyl)-4-(dimethylamino)-but-2-enamide, reference compound] yielded an IC50 in assay [5] of 6780 nM. In assay [6], the “RTV d22” value was 1.67 ± 0.20 and the “T/C (%) d22” value is given as 22.44%. The “Inhibition rate (%) d22” value in assay [6] (listed as Positive control) is listed as 67.6** %.
For `C=CS(=O)(=O)Nc1cc2c(Nc3ccc(F)c(Cl)c3)ncnc2cc1OCCOCC` [Embodiment 24, N-(4-(3-chloro-4-fluorophenylamino)-7-(2-ethoxyethoxy)quinazolin-6-yl)ethenesulfonamide], the IC50 in assay [1] was 3.38 nM; in assay [2], 13.7 nM; in assay [3], 3.95 nM; in assay [4] it was 130 nM.
In the case of `CCOCCOc1ccc(Nc2ncnc3cc(OCCOCC)c(NC(=O)/C=C/CN(C)C)cc23)cc1Cl` [Embodiment 17, (E)-N-(4-(3-chloro-4-(2-ethoxyethoxy)phenylamino)-7-(2-ethoxyethoxy)quinazolin-6-yl)-4-(dimethylamino)but-2-enamide], the IC50 was 13.7 nM in assay [1], 6.17 nM in assay [2], 0.343 nM in assay [3] and 2.53 nM in assay [4].
With `CCOCCOc1cc2ncnc(Nc3ccc(F)c(Cl)c3)c2cc1NC(=O)/C=C\Cl` [Embodiment 32, (Z)—N-(4-(3-chloro-4-fluorophenylamino)-7-(2-ethoxyethoxy)quinazolin-6-yl)-3-chloroacrylamide], the results for the IC50 in assay [5] and in assay [2] were 4000 nM and 1.6 nM, respectively.
As to `CCOCCOc1cc2ncnc(Nc3ccc(F)c(Cl)c3)c2cc1NC(=O)/C=C/C(F)(F)F` [Embodiment 36, (E)-N-(4-(3-chloro-4-fluorophenylamino)-7-(2-ethoxyethoxy)quinazolin-6-yl)-4,4,4-trifluorobut-2-enamide], the IC50 in assay [1] was 148 nM; in assay [2] it was 27.6 nM; in assay [3], 0.153 nM; in assay [4], 18.3 nM.
For `C=CC(=O)Nc1cc2c(Nc3ccc(F)c(Cl)c3)ncnc2cc1OCCOCC` [Embodiment 22, N-(4-(3-chloro-4-fluorophenylamino)-7-(2-ethoxyethoxy)quinazolin-6-yl)acrylamide] the same measures were 6.01 nM, 51.8 nM, 0.153 nM and 5.67 nM.
With `CCOCCOc1cc2ncnc(Nc3ccc(F)c(Cl)c3)c2cc1NC(=O)/C=C/Cl` [Embodiment 31, (E)-N-(4-(3-chloro-4-fluorophenylamino)-7-(2-ethoxyethoxy)quinazolin-6-yl)-3-chloroacrylamide], the IC50 in assay [2] came to 7.43 nM.
As for `C=C(F)C(=O)Nc1cc2c(Nc3ccc(F)c(Cl)c3)ncnc2cc1OCCOCC` [Embodiment 26, N-(4-(3-chloro-4-fluorophenylamino)-7-(2-ethoxyethoxy)quinazolin-6-yl)-2-fluoroacrylamide], the IC50 in assay [1] was 54.5 nM; in assay [2] it was 72.5 nM; in assay [3], 0.538 nM; in assay [4] it was 58.2 nM.
Consider `CCOCCOc1cc2ncnc(Nc3ccc(F)c(Cl)c3)c2cc1NC(=O)/C=C/CN(CC)CC` [Embodiment 33, (E)-N-(4-(3-chloro-4-fluorophenylamino)-7-(2-ethoxyethoxy)quinazolin-6-yl)-4-(diethylamino)but-2-enamide], for which the IC50 turned out to be 3530 nM in assay [5] and 10.9 nM at Her-2 enzyme.

Source of the values: patent publication US10196365B2, “Quinazoline derivative, preparation method therefor, and pharmaceutical composition and application thereof” (ARROMAX PHARMATECH CO., LTD., priority 2014, dated 2019).
